PubChem BioAssay (NCI)
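Interpolation was linear, between the two tested concentrations surrounding the appropriate level; five concentrations were tested over 48 hours in 96-well plates. At the TGI there is no net growth.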

Tests used:
Assay in all cases: NCI-60 cell line screen, 48 h
NCI-H460 lung = test system: NCI-H460 lung
U251 CNS = test system: U251 CNS
HL-60(TB) leukemia = test system: HL-60(TB) leukemia
HCC-2998 colon = test system: HCC-2998 colon
SK-MEL-5 melanoma = test system: SK-MEL-5 melanoma
TK-10 renal = test system: TK-10 renal
NCI-H522 lung = test system: NCI-H522 lung
SK-MEL-28 melanoma = test system: SK-MEL-28 melanoma
HOP-62 NSCLC = test system: HOP-62 NSCLC
HCT-116 colon = test system: HCT-116 colon
MDA-N = test system: MDA-N
PC-3 prostate = test system: PC-3 prostate

Structure (SMILES) | TGI (NCI-H460 lung) [µM] | TGI (U251 CNS) [µM] | TGI (HL-60(TB) leukemia) [µM] | TGI (HCC-2998 colon) [µM] | TGI (SK-MEL-5 melanoma) [µM] | TGI (TK-10 renal) [µM] | TGI (NCI-H522 lung) [µM] | TGI (SK-MEL-28 melanoma) [µM] | TGI (HOP-62 NSCLC) [µM] | TGI (HCT-116 colon) [µM] | TGI (MDA-N) [µM] | TGI (PC-3 prostate) [µM]
C=C[C@]1(C)CCC2=C(CCC3C2(C)CCC[C@@]3(C)COC(C)=O)C1 (some centres undefined) | 32.2 | 31.7 | 36.4 | 31.8 | 31 | 59 | 28.7 | 60.4 | 40.2 | 30.9 |  | 
COC(=O)C1=C(OC(=O)/C=C/c2ccc(Cl)cc2)C(C(=O)OC)[C@@]2(O)[C@@H](C(=O)OC)[C@H](C)C[C@@H]1[C@@H]2C(=O)OC (some centres undefined) | > 100 | > 100 | 36.1 |  | 32.2 | > 100 | 23.1 | 88.7 | > 100 | 58.3 | 29.5 | 69
Cc1cc(S(=O)(=O)/N=C(/[N-]S(=O)(=O)c2ccc(Cl)cc2)[n+]2ccc(N(C)C)cc2)c(SCC(=O)O)cc1Cl | > 100 | > 100 | > 100 |  |  | > 100 |  |  | 46.2 | > 100 |  | > 100
Cc1cccc(-c2cc(=O)c3c(C)cc(C)nc3[nH]2)c1 | 16.6 | 37.6 | 4.34 | > 48.1 | 15.8 | > 100 | 2.85 | > 100 | > 100 | > 39.1 |  | > 100
COC(=O)C1(C(=O)OC)N=C(C)OC1/C=C/c1ccccc1 (centres undefined) | > 100 | > 100 | > 100 | > 100 | > 100 | > 100 |  | > 100 | > 100 | > 100 | > 100 | > 100
CC(OC(=O)C(CC(=O)OC(C)(C)C)NC(=O)OC(C)(C)C)C(=O)OCc1ccccc1 (centres undefined) | > 100 | > 100 | > 100 | > 100 |  | > 100 | > 100 | > 100 | > 100 | > 100 | > 100 | > 100
Nc1nc2c(ncn2Cc2ccccc2CO)c(=O)[nH]1 | > 100 | > 100 | > 100 | > 100 | > 100 | > 100 | > 100 | > 100 | > 100 | > 100 |  | > 100
CC(=O)OC1COC(N2C(=O)C(=O)c3cc(Br)ccc32)C(OC(C)=O)C1OC(C)=O (centres undefined) | > 100 | > 100 |  | > 100 | > 100 | > 100 | > 100 | > 100 | > 100 |  |  | 
Cc1c2ccncc2c(C)c2c1[nH]c1ccc(OCC(F)(F)F)cc12 | 2.46 | 2.98 |  |  | 3.35 | 3.58 | 3.22 | 3.15 | 3.03 |  |  | 
CCOC1Oc2ccccc2-c2nc(SC)ncc21 (centres undefined) | > 100 | > 100 | > 100 |  | > 100 | > 100 | > 100 |  |  | > 100 | > 100 | > 100
O=C(c1ccc(Cl)cc1)N(C(=S)OCc1ccccn1)c1ccccc1 |  | > 100 | > 100 |  | > 100 | > 100 |  | > 100 | 75.7 | > 100 | > 100 | > 100
CC(=O)OC12c3ccccc3-c3ccccc3C1C1C(=O)OC(=O)C12 (centres undefined) | > 10 | > 10 | > 10 | > 10 | > 10 | > 10 | > 10 | > 10 | > 10 |  | > 10 | > 10
COC1(O)c2cccc(Cl)c2C(=O)N1C1(C(N)=O)CCCCC1 (centres undefined) | > 100 | > 100 | > 100 | > 100 | > 100 |  | > 100 | > 100 | > 100 | > 100 |  | 
COc1ccccc1/C=C1\NC(=S)N(/C=C2\C(=O)Oc3ccccc3C2=O)C1=O | > 100 | > 100 | > 100 | > 100 | 78.7 | > 100 | > 100 | > 100 | > 100 | > 100 |  | > 100
O=C1CC(=O)NC(=NNS(=O)(=O)c2ccccc2)N1 | > 100 | > 100 |  | > 100 | > 100 | > 100 | > 100 | > 100 | > 100 | > 100 | > 100 | > 100
O=C1C=CC(=O)c2c1ccc1c3ccccc3n(-c3ccccc3[N+](=O)[O-])c21 | > 100 | 21.2 |  | 13.2 | 21.2 | 5.89 | 2.87 | 50.8 | > 53.7 | > 25.3 | > 21.6 | 12.4
C=CCOC(=O)C1=C(CCC[C@@H](C)O[Si](C)(C)C(C)(C)C)N=C(N)N2[C@H](CCO)CC[C@@H]12 | 31.5 | 24.7 |  | 35.5 | 24.9 | 34.3 | 25.2 | 31.3 | 27.4 | 28.6 | 32.9 | 20.8
COc1ccc(C2C3CCc4ccccc4C3=NN2S(=O)(=O)c2ccc(/C=C/C(=O)O)cc2)cc1 (centres undefined) | 96.5 | 11.6 | 9.67 |  | 18.6 | > 100 | 7.04 |  | > 100 | 38.2 |  | > 100
COc1cc(C2C(Cl)C(=O)N2NC(=O)c2ccc(N)cc2)cc(Br)c1O (centres undefined) | 31.4 | 10.1 | 27.6 | 24.3 | 31.7 | 32.5 | 3.4 | 31.6 | 28.9 | 22.3 |  | 
Ic1cc2c(cc1C1SCCCS1)OCO2 | > 100 | > 100 | > 100 | > 100 | > 100 | > 100 | > 100 | > 100 | > 100 | > 100 |  | 
Cc1nnc(N)nc1/C=C/c1c(O)ccc2ccccc12 | 71.2 | > 100 | 71.4 | 45.2 | 94.4 | > 100 |  | > 100 | > 100 | > 100 | > 100 | 64.1
